In US11318137B2, “Quinazoline compounds as modulators of Ras signaling” (VANDERBILT UNIVERSITY, priority 2017, dated 2022):
pEC50, pIC50, pKi: −log10 of the molar value.

How the values were obtained:
[1] = target: T1, SOS-mediated nucleotide exchange on Ras (Homo sapiens, UniProt Q07889); assay: SOS-mediated nucleotide exchange on Ras (BODIPY-GDP fluorescence); type: biochemical; details: Ras loaded with BODIPY-GDP, GTP and SOS added; EC50 from derived exchange rates
T1 sequence (Q07889 1-1333): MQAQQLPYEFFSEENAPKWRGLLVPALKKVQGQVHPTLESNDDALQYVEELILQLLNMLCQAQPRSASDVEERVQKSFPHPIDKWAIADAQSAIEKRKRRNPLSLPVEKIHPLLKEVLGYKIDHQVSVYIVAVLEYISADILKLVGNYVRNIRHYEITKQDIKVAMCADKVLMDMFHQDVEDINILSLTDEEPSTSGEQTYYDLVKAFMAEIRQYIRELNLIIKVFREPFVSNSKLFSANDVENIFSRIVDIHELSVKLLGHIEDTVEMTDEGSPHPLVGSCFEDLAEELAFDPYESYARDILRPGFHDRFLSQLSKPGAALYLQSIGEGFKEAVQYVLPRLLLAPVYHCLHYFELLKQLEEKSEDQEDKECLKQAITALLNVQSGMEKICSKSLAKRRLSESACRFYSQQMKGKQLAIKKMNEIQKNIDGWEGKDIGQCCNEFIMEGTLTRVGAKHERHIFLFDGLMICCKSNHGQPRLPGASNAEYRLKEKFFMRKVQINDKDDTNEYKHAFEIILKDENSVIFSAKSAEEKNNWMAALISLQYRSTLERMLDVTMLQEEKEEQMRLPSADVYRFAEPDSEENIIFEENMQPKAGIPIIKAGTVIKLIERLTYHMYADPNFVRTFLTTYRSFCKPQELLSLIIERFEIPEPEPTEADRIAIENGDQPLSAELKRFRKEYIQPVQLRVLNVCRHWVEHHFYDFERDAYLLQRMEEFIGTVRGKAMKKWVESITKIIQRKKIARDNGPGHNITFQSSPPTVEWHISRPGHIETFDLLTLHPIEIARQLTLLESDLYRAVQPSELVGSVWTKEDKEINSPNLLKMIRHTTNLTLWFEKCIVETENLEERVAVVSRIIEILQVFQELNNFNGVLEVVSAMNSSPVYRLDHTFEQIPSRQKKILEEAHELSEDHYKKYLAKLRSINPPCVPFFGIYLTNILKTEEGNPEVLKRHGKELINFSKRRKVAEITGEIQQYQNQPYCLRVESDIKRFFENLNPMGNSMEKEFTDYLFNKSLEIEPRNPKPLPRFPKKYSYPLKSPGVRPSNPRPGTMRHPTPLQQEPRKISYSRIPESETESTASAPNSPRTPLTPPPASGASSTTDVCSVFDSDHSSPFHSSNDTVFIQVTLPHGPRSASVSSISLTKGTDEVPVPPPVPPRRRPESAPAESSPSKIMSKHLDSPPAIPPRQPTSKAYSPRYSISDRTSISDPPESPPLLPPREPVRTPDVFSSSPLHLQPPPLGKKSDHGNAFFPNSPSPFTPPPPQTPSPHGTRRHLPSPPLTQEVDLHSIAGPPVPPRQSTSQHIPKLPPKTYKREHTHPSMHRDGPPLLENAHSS
How it was run: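 Compound, then GTP and SOS, were added to buffered Ras preloaded with BODIPY-GDP, and the fluorescence change from labeled GDP being exchanged for GTP was followed over time. Rates came from single-exponential fits, and EC50 from a four-parameter fit of mean rate against compound concentration.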

[2] = test system: H727 lung cancer cell lines, which contain a G12V K-Ras mutation; assay: Inhibition of cancer cell proliferation (CellTiter-Glo, 3 days); type: cell-based; details: Homo sapiens, NCI-H727, 72 h, H727 cells, 3 days at 37° C., normalized to DMSO control, read-out: Cell proliferation activity (H727 cancer cell line proliferation IC50)
Protocol: C. Inhibition of Cancer Cell Proliferation
Compounds of the present invention were measured for their ability to kill H727 lung cancer cell lines, which contain a G12V K-Ras mutation. Cell proliferation experiments were conducted in 96-well plates. Cells were plated at 1000 cells/well, incubated overnight, followed by treatment with a dose range of compound for 3 days at 37° C. Cell proliferation was assessed using a CellTiter-Glo assay (Promega) according to the manufacturer's protocol. Data were normalized to DMSO control. IC50 values were determined using a four-parameter dose-response (variable slope) equation. These assays are performed in a manner analogous to the assay disclosed in: Burns, M. C.; Sun, Q.; Daniels, R. N.; Camper, D. V.; Kennedy, J. P.; Phan, J.; Olejniczak, E. O.; Lee, T.; Waterson, A. G.; Rossanese, O. W.; Fesik, S. W. “Approach for targeting Ras with small molecules that activate SOS-mediated nucleotide exchange” Proc. Natl. Acad. Sci. 2014; 11(9): 3401-3406. PMCID: PMC3948241.

Son of Sevenless (SOS) = target: T2, Son of Sevenless (SOS) (Homo sapiens, UniProt Q07889); assay: Binding to SOS, fluorescence polarization anisotropy (FPA) displacement of FITC-conjugated probe; details: binding affinity calculated from IC50 of FITC-probe displacement, read-out: Binding affinities (binding affinity to SOS)
T2 sequence (Q07889 564-1049 limits assumed): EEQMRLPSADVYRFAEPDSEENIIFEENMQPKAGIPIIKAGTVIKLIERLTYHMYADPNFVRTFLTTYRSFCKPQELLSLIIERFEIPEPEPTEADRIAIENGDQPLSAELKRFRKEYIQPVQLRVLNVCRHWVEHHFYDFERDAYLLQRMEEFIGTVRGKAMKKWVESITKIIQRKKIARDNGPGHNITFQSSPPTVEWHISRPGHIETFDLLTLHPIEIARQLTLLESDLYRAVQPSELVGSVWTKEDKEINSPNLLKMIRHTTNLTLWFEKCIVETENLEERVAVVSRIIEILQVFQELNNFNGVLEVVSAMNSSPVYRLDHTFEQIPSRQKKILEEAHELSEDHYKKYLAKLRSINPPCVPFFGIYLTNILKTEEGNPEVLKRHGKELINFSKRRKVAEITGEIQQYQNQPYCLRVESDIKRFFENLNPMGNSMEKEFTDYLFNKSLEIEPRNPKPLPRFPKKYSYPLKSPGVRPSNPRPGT
How it was run: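 FITC-labelled probe incubated with SOS in buffer; displacement by test compound across a dose range read as fluorescence anisotropy change. IC50 from four-parameter variable-slope fit, binding affinity calculated from IC50.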

Row | Compound | pEC50 [1] | pKi (Son of Sevenless (SOS)) | pIC50 [2]
1 | C[C@@H](Nc1nc(Nc2ccc(F)c(Cl)c2)nc2ccccc12)C1CC1 [Example 1, (R)—N^2-(3-chloro-4-fluorophenyl)-N^4-(1-cyclopropylethyl)quinazoline-2,4-diamine] | 4.52 to 5.30 |  | 5.30 to 6.00
2 | C[C@@H](Nc1nc(NCC2CCCCCC2)nc2ccccc12)C1CC1 [Example 5, (R)—N^2-(cycloheptylmethyl)-N^4-(1-cyclopropylethyl)quinazoline-2,4-diamine] | 4.52 to 5.30 | < 5.30 | 5.30 to 6.00
3 | CC[C@@H](Nc1nc(Nc2ccc(F)c(Cl)c2)nc2c(C3=CCNCC3)cccc12)c1cccs1 [Example 100, (R)—N^2-(3-chloro-4-fluorophenyl)-8-(1,2,3,6-tetrahydropyridin-4-yl)-N^4-(1-(thiophen-2-yl)propyl)quinazoline-2,4-diamine] | 4.52 to 5.30 |  | > 6.00
4 | C[C@@H](Nc1nc(Cc2cc(F)cc(F)c2)nc2ccccc12)C1CC1 [Example 110, (R)—N-(1-cyclopropylethyl)-2-(3,5-difluorobenzyl)quinazolin-4-amine] | 4.52 to 5.30 |  | 4.70 to 5.30
5 | C[C@@H](Nc1nc(Nc2ccc(F)c(Cl)c2)nc2c(C3=CCN(C)CC3)cccc12)C1CC1 [Example 120, (R)—N^2-(3-chloro-4-fluorophenyl)-N^4-(1-cyclopropylethyl)-8-(1-methyl-1,2,3,6-tetrahydropyridin-4-yl)quinazoline-2,4-diamine] | 4.52 to 5.30 | 5.30 to 6.00 | 
6 | C[C@@H](Nc1nc(Nc2ccc(F)c(Cl)c2)nc2c(C3=CCOCC3)cccc12)C1CC1 [Example 122, (R)—N^2-(3-chloro-4-fluorophenyl)-N^4-(1-cyclopropylethyl)-8-(3,6-dihydro-2H-pyran-4-yl)quinazoline-2,4-diamine] | < 4.52 | < 5.30 | 
7 | CCOCCc1cccc2c(N[C@H](C)C3CC3)nc(Nc3ccc(F)c(Cl)c3)nc12 [Example 123, (R)—N^2-(3-chloro-4-fluorophenyl)-N^4-(1-cyclopropylethyl)-8-(2-ethoxyethyl)quinazoline-2,4-diamine] | < 4.52 | < 5.30 | 
8 | C[C@@H](Nc1nc(Nc2ccc(F)c(Cl)c2)nc2c(N3CCOCC3)cccc12)C1CC1 [Example 124, (R)—N^2-(3-chloro-4-fluorophenyl)-N^4-(1-cyclopropylethyl)-8-morpholinoquinazoline-2,4-diamine] | 4.52 to 5.30 | < 5.30 | 
9 | C[C@@H](Nc1nc(Nc2ccc(F)c(Cl)c2)nc2c(CN)cccc12)C(C)(C)C [Example 130, (R)-8-(aminomethyl)-N^2-(3-chloro-4-fluorophenyl)-N^4-(3,3-dimethylbutan-2-yl)quinazoline-2,4-diamine] | 4.52 to 5.30 | < 5.30 | 
10 | Cc1cc(F)cc(Nc2nc(N[C@H](C)C(C)(C)C)c3cccc(CN)c3n2)c1 [Example 131, (R)-8-(aminomethyl)-N^4-(3,3-dimethylbutan-2-yl)-N^2-(3-fluoro-5-methylphenyl)quinazoline-2,4-diamine] | 4.52 to 5.30 | < 5.30 | 
11 | C[C@@H](Nc1nc(Nc2ccc(F)c(Cl)c2)nc2c(CN)cccc12)c1cccs1 [Example 132, (R)-8-(aminomethyl)-N^2-(3-chloro-4-fluorophenyl)-N^4-(1-(thiophen-2-yl)ethyl)quinazoline-2,4-diamine] | 4.52 to 5.30 | 5.30 to 6.00 | 
12 | C[C@@H](Nc1nc(NCc2cccc(Cl)c2F)nc2c(C3=CCNCC3)cccc12)c1cccs1 [Example 133, (R)—N^2-(3-chloro-2-fluorobenzyl)-8-(1,2,3,6-tetrahydropyridin-4-yl)-N^4-(1-(thiophen-2-yl)ethyl)quinazoline-2,4-diamine] | 4.52 to 5.30 | 5.30 to 6.00 | 

Second part, led by results:

Row | pEC50 [1] | pKi (Son of Sevenless (SOS)) | Compound | pIC50 [2]
13 | 5.30 to 6.00 |  | CC[C@@H](Nc1nc(Nc2ccc(F)c(Cl)c2)nc2c(CCN)cccc12)C1CC1 [Example 50, (R)-8-(2-aminoethyl)-N^2-(3-chloro-4-fluorophenyl)-N^4-(1-cyclopropylpropyl)quinazoline-2,4-diamine] | 5.30 to 6.00
14 | 5.30 to 6.00 |  | C[C@@H](Nc1nc(Nc2cc(F)cc(F)c2)nc2ccc(CCN)cc12)C1CC1 [Example 109, (R)-6-(2-aminoethyl)-N^4-(1-cyclopropylethyl)-N^2-(3,5-difluorophenyl)quinazoline-2,4-diamine] | > 6.00
15 | 5.30 to 6.00 | 5.30 to 6.00 | C[C@@H](Nc1nc(NCC2CCCCC2)nc2c(C3=CCN(C)CC3)cccc12)C1CC1 [Example 121, (R)—N^2-(cyclohexylmethyl)-N^4-(1-cyclopropylethyl)-8-(1-methyl-1,2,3,6-tetrahydropyridin-4-yl)quinazoline-2,4-diamine] | 
16 | > 6.00 | > 6.00 | CC[C@@H](Nc1nc(NCC2CCCCC2)nc2c(C3=CCNCC3)cccc12)C1CC1 [Example 125, (R)—N^2-(cyclohexylmethyl)-N^4-(1-cyclopropylpropyl)-8-(1,2,3,6-tetrahydropyridin-4-yl)quinazoline-2,4-diamine] | 
17 | 5.30 to 6.00 | > 6.00 | CC[C@@H](Nc1nc(Nc2cc(C)cc(F)c2)nc2c(C3=CCNCC3)cccc12)C1CC1 [Example 126, (R)—N^4-(1-cyclopropylpropyl)-N^2-(3-fluoro-5-methylphenyl)-8-(1,2,3,6-tetrahydropyridin-4-yl)quinazoline-2,4-diamine] | 
18 | 5.30 to 6.00 | > 6.00 | CC[C@@H](Nc1nc(NCC2CCCCC2)nc2c(CCN)cccc12)C1CC1 [Example 127, (R)-8-(2-aminoethyl)-N^2-(cyclohexylmethyl)-N^4-(1-cyclopropylpropyl)quinazoline-2,4-diamine] | 
19 | 5.30 to 6.00 | 5.30 to 6.00 | CC[C@@H](Nc1nc(Nc2cc(C)cc(F)c2)nc2c(CCN)cccc12)C1CC1 [Example 128, (R)-8-(2-aminoethyl)-N^4-(1-cyclopropylpropyl)-N^2-(3-fluoro-5-methylphenyl)quinazoline-2,4-diamine] | 
